ChEMBL document CHEMBL1134056, “Diaryl ether inhibitors of farnesyl-protein transferase” (Bioorg Med Chem Lett, 2001)

Columns and labels:
[1] = biological target: Protein farnesyltransferase (Homo sapiens, UniProt P49354+P49356); assay: Inhibition of rate of incorporation of [3H]FPP into recombinant Ras-CVIM by human farnesyltransferase.; assay type: protein-complex assay
[2] = biological target: Geranylgeranyl transferase type I (Homo sapiens, UniProt P49354+P53609); assay: Inhibition of rate of incorporation of [3H]GGPP into a biotinylated peptide corresponding to C-terminus of human Ki-Ras by human geranylgeranyl-transferase type I.; assay type: protein-complex assay
[3] = biological target: Protein farnesyltransferase (Rattus norvegicus, UniProt Q02293+Q04631); assay: Displacement of radiolabeled FTI from Farnesyltransferase in cultured v-Ha-ras-transformed RAT1 cells; assay type: functional, cell-based

SMILES	IC50 [1] [nM]	IC50 [2] [nM]	IC50 [3] [nM]
COc1ccc(OC)c(Oc2cc(Cn3ccnc3)ccc2C#N)c1	100	18000	
N#Cc1ccc(Cn2ccnc2)cc1OCCCCc1ccccc1	440	380	
N#Cc1ccc(Cn2ccnc2)cc1Oc1cccc(Nc2ccccc2)c1	17	630	
CC(=O)c1cccc(Oc2cc(Cn3ccnc3)ccc2C#N)c1	45	6100	
N#Cc1ccc(Cn2ccnc2)cc1[S+]([O-])c1ccc(Cl)cc1Cl (stereo not drawn)	390	2000	
CC(C)(C)c1cccc(Oc2cc(Cn3ccnc3)ccc2C#N)c1	27	520	
CCC1(c2cccc(Oc3cc(Cn4ccnc4)ccc3C#N)c2)CCCCN(C)C1=O (stereo not drawn)	2.9	7.1	4.9
N#Cc1ccc(Cn2ccnc2)cc1Oc1cccc(Cc2ccccc2)c1	230	600	
N#Cc1ccc(Cn2ccnc2)cc1Oc1cccc(Cl)c1	53	3200	
N#Cc1ccc(Cn2ccnc2)cc1OCCc1ccc(-c2ccccc2)cc1	86	12000	
N#Cc1ccc(Cn2ccnc2)cc1Oc1cccc(-c2ccccc2)c1	9.6	520	
N#Cc1ccc(Cn2ccnc2)cc1Oc1ccccc1	230	3700	
N#Cc1ccc(Cn2ccnc2)cc1Oc1cccc2ccccc12	150	3200	
N#Cc1ccc(Cn2ccnc2)cc1Oc1cccc(F)c1	180	4400	
COc1ccc(Oc2cc(Cn3ccnc3)ccc2C#N)cc1	290	3500	
N#Cc1ccc(Cn2ccnc2)cc1Oc1ccc(Cl)c(Cl)c1	28	1200	
N#Cc1ccc(Cn2ccnc2)cc1Oc1ccccc1Cl	41	1100	
N#Cc1ccc(Cn2ccnc2)cc1Oc1cccc(NC(=O)c2ccccc2)c1	38	2000	
N#Cc1ccc(Cn2ccnc2)cc1Oc1cccc(Oc2ccccc2)c1	14	280	

SMILES	IC50 [1] [nM]	IC50 [2] [nM]	IC50 [3] [nM]
N#Cc1ccc(Cn2ccnc2)cc1OCCc1ccccc1	860	7000	
N#Cc1ccc(Cn2ccnc2)cc1Oc1ccccc1-c1ccccc1	110	740	
COc1ccccc1Oc1cc(Cn2ccnc2)ccc1C#N	340	28000	
N#Cc1ccc(Cn2ccnc2)cc1Oc1cccc(C(=O)c2ccccc2)c1	13	840	
N#Cc1ccc(Cn2ccnc2)cc1Oc1ccc2ccccc2c1	1.1	520	
N#Cc1cccc(Oc2cc(Cn3ccnc3)ccc2C#N)c1	130	16000	
N#Cc1ccc(Cn2ccnc2)cc1OCCCc1ccccc1	200	3100	
N#Cc1ccc(Cn2ccnc2)cc1Oc1ccc(Cl)cc1	38	920	
N#Cc1ccc(Cn2ccnc2)cc1Sc1ccc(Cl)cc1Cl	< 1	23	96
C#Cc1cccc(Oc2cc(Cn3ccnc3)ccc2C#N)c1	27	2600	
N#Cc1ccc(Cn2ccnc2)cc1Oc1cccc(C(=O)Nc2ccccc2)c1	38	3300	
COc1cccc(Oc2cc(Cn3ccnc3)ccc2C#N)c1OC	1	15000	14
N#Cc1ccc(Cn2ccnc2)cc1Oc1ccc(Cl)cc1Cl	8	280	260
N#Cc1ccc(Cn2ccnc2)cc1Oc1cccc(Br)c1	38	2900	
N#Cc1ccc(Cn2ccnc2)cc1Oc1ccc(-c2ccccc2)cc1		1300	
N#Cc1ccc(Cn2ccnc2)cc1OCc1ccccc1	1500	6800	
Cc1ncn(Cc2ccc(C#N)cc2)c1CN1CC(=O)N(c2cccc(Cl)c2)CC1CCS(C)(=O)=O (stereo not drawn)	475		
COc1cccc(Oc2cc(Cn3ccnc3)ccc2C#N)c1	40	3500	
N#Cc1ccc(Cn2ccnc2)cc1S(=O)(=O)c1ccc(Cl)cc1Cl	5400	8800	
